Results published in patent US11045457B2, “Piperidinyl-3-(aryloxy)propanamides and propanoates” (priority 2018, dated 2021).

target: SSTR4 (Homo sapiens (Human), UniProt P31391); assay: Inhibition of forskolin stimulated cAMP in CHO-K1 cells overexpressing SSTR4; type: cell-based; conditions: not given
Procedure: Inhibition of Forskolin Stimulated cAMP in Cells Overexpressing SSTR4
This cell-based assay measures the ability of compounds to inhibit forskolin stimulated cAMP in CHO-K1 cells overexpressing SSTR4. CHO-K1 cells overexpressing SSTR4 (CHO-SSTR4) are purchased from DiscoveRx (product code 95-0059C2). The CHO-SSTR4 cells are maintained in F12K media with 10% Fetal Bovine Serum (Hyclone), 1% Pen/Strep (Life Technologies), and 800 μg/mL G418 (Life Technologies). […] The next day, the culture media is removed from the cells and the cells are washed (added then removed) with Kreb's Ringer Buffer (ZenBio, KRB-1000 mL). […] The cells are incubated in […] for 30 minutes at room temperature. Cellular cAMP levels are detected with a HTRF LANCE Ultra cAMP kit (Perkin Elmer, catalog number TRF0264).
The assay is performed in accordance with the manufacturer's instructions. Five μL of diluted Eu-W8044 labeled streptavidin (dilution: 1:50 in cAMP Detection Buffer) is added to each well. Then 5 μL of diluted biotin cAMP (dilution: 1:150 in cAMP Detection Buffer) is added to each well. The plates are covered and allowed to incubate for 60 minutes at room temperature on a shaker. […] The pEC50 values are generated using Activity Base for Screening Data Management.

Sequence of SSTR4 (P31391 whole entry): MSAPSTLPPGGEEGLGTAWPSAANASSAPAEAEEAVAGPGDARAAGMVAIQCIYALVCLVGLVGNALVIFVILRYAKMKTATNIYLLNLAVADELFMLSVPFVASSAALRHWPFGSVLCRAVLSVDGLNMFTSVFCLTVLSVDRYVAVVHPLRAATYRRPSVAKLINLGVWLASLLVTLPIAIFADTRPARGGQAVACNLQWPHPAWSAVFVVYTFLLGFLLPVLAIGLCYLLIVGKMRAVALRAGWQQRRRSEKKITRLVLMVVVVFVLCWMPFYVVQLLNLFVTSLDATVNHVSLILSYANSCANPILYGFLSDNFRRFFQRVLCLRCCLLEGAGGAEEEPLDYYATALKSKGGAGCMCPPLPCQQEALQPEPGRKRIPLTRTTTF

SMILES	SSTR4 Activity pEC50
C[C@@H]1CN(C)CC[C@H]1NC(=O)C(F)(F)COc1ncccc1C(F)(F)F (relative stereo) [Example 189, trans-N-(1,3-dimethylpiperidin-4-yl)-2,2-difluoro-3-((3-(trifluoromethyl)pyridin-2-yl)oxy)propanamide]	6.8
C[C@@H]1CN(C)CC[C@H]1NC(=O)C(C)(C)COc1ncccc1C(F)(F)F (single isomer, unassigned) [Example 106]	6.0
Cc1cnc(OCC(C)(C)C(=O)N[C@@H]2CCN(C)C[C@H]2C)c(C)c1 (single isomer, unassigned) [Example 140]	6.2
Cc1cccnc1OCC(C)(C)C(=O)NC1CCN(C)C1 (centres unmarked) [Example 2, 2,2-dimethyl-3-((3-methylpyridin-2-yl)oxy)-N-(1-methylpyrrolidin-3-yl)propanamide]	6.3
CN1CCC(NC(=O)C(C)(C)COc2ncccc2C#N)CC1 [Example 3, 3-((3-cyanopyridin-2-yl)oxy)-2,2-dimethyl-N-(1-methylpiperidin-4-yl)propanamide]	5.8
CN1CC[C@@H](NC(=O)C(C)(C)COc2ncncc2C2CC2)C1 [Example 4, (R)-3-((5-cyclopropylpyrimidin-4-yl)oxy)-2,2-dimethyl-N-(1-methylpyrrolidin-3-yl)propanamide]	6.5
CN1CCC(NC(=O)C(C)(C)COc2ncncc2C2CC2)CC1 [Example 5, 3-((5-cyclopropylpyrimidin-4-yl)oxy)-2,2-dimethyl-N-(1-methylpiperidin-4-yl)propanamide]	6.8
Cc1cnc(OCC(C)(C)C(=O)NC2CCN(C)CC2)c(C2CC2)c1 [Example 6, 3-((3-cyclopropyl-5-methylpyridin-2-yl)oxy)-2,2-dimethyl-N-(1-methylpiperidin-4-yl)propanamide]	7.3
Cc1cnc(OCC(C)(C)C(=O)N[C@@H]2CCN(C)C2)c(C2CC2)c1 [Example 7, (R)-3-((3-cyclopropyl-5-methylpyridin-2-yl)oxy)-2,2-dimethyl-N-(1-methylpyrrolidin-3-yl)propanamide]	7.2
Cc1cc(C2CC2)cnc1OCC(C)(C)C(=O)NC1CCN(C)CC1 [Example 8, 3-((5-cyclopropyl-3-methylpyridin-2-yl)oxy)-2,2-dimethyl-N-(1-methylpiperidin-4-yl)propanamide]	7.0
Cc1ccc(C2CC2)c(OCC(C)(C)C(=O)NC2CCN(C)CC2)n1 [Example 9, 3-((3-cyclopropyl-6-methylpyridin-2-yl)oxy)-2,2-dimethyl-N-(1-methylpiperidin-4-yl)propanamide]	7.1
Cc1ccc(C2CC2)c(OCC(C)(C)C(=O)N[C@@H]2CCN(C)C2)n1 [Example 10, (R)-3-((3-cyclopropyl-6-methylpyridin-2-yl)oxy)-2,2-dimethyl-N-(1-methylpyrrolidin-3-yl)propanamide]	6.8
CN1CC(NC(=O)C(C)(C)COc2ncccc2C(F)(F)F)CC1(C)C (centres unmarked) [Example 35, 2,2-dimethyl-3-((3-(trifluoromethyl)pyridin-2-yl)oxy)-N-(1,5,5-trimethylpyrrolidin-3-yl)propanamide]	6.5
CN1CC[C@H](CNC(=O)C(C)(C)COc2ncccc2C(F)(F)F)C1 [Example 36, (R)-2,2-dimethyl-N-((1-methylpyrrolidin-3-yl)methyl)-3-((3-(trifluoromethyl)pyridin-2-yl)oxy)propanamide]	6.1
CN1CC[C@@H](CNC(=O)C(C)(C)COc2ncccc2C(F)(F)F)C1 [Example 37, (S)-2,2-dimethyl-N-((1-methylpyrrolidin-3-yl)methyl)-3-((3-(trifluoromethyl)pyridin-2-yl)oxy)propanamide]	6.3
CN1CCC(NC(=O)C(C)(C)COc2ncccc2Cl)CC1 [Example 38, 3-((3-chloropyridin-2-yl)oxy)-2,2-dimethyl-N-(1-methylpiperidin-4-yl)propanamide]	7.0

SMILES	SSTR4 Activity pEC50
CN1CCC(NC(=O)C(C)(C)COc2ncccc2F)CC1 [Example 39, 3-((3-fluoropyridin-2-yl)oxy)-2,2-dimethyl-N-(1-methylpiperidin-4-yl)propanamide]	6.3
CN1CCC(NC(=O)C(C)(C)COc2ncc(F)cc2F)CC1 [Example 40, 3-((3,5-difluoropyridin-2-yl)oxy)-2,2-dimethyl-N-(1-methylpiperidin-4-yl)propanamide]	6.1
CN1CCC(NC(=O)C(C)(C)COc2cnccc2C(F)(F)F)CC1 [Example 42, 2,2-dimethyl-N-(1-methylpiperidin-4-yl)-3-((4-(trifluoromethyl)pyridin-3-yl)oxy)propanamide]	7.2
CN1CCC(NC(=O)C(C)(C)COc2ccncc2C(F)(F)F)CC1 [Example 43, 2,2-dimethyl-N-(1-methylpiperidin-4-yl)-3-((3-(trifluoromethyl)pyridin-4-yl)oxy)propanamide]	6.9
CN1CCC(NC(=O)C(C)(C)COc2nccc(Cl)c2F)CC1 [Example 44, 3-((4-chloro-3-fluoropyridin-2-yl)oxy)-2,2-dimethyl-N-(1-methylpiperidin-4-yl)propanamide]	5.9
CN1CCC(NC(=O)C(C)(C)COc2ncc(F)cc2Cl)CC1 [Example 45, 3-((3-chloro-5-fluoropyridin-2-yl)oxy)-2,2-dimethyl-N-(1-methylpiperidin-4-yl)propanamide]	5.8
Cc1nc(Cl)ccc1OCC(C)(C)C(=O)NC1CCN(C)CC1 [Example 46, 3-((6-chloro-2-methylpyridin-3-yl)oxy)-2,2-dimethyl-N-(1-methylpiperidin-4-yl)propanamide]	5.4
Cc1cc(Cl)cnc1OCC(C)(C)C(=O)NC1CCN(C)CC1 [Example 48, 3-((5-chloro-3-methylpyridin-2-yl)oxy)-2,2-dimethyl-N-(1-methylpiperidin-4-yl)propanamide]	6.8
Cc1cnccc1OCC(C)(C)C(=O)NC1CCN(C)CC1 [Example 50, 2,2-dimethyl-N-(1-methylpiperidin-4-yl)-3-((3-methylpyridin-4-yl)oxy)propanamide]	6.2
Cc1cc(C#N)cnc1OCC(C)(C)C(=O)NC1CCN(C)CC1 [Example 51, 3-((5-cyano-3-methylpyridin-2-yl)oxy)-2,2-dimethyl-N-(1-methylpiperidin-4-yl)propanamide]	6.1
CCOc1cccnc1OCC(C)(C)C(=O)NC1CCN(C)CC1 [Example 54, 3-((3-ethoxypyridin-2-yl)oxy)-2,2-dimethyl-N-(1-methylpiperidin-4-yl)propanamide]	7.0
Cc1cccnc1OCC1(C(=O)NC2CCN(C)CC2)CC1 [Example 63, N-(1-methylpiperidin-4-yl)-1-(((3-methylpyridin-2-yl)oxy)methyl)cyclopropane-1-carboxamide]	5.8
CN1CCC(NC(=O)C(C)(C)COc2ccc(C#N)cc2C(F)(F)F)CC1 [Example 73, 3-(4-cyano-2-(trifluoromethyl)phenoxy)-2,2-dimethyl-N-(1-methylpiperidin-4-yl)propanamide]	7.0
CN1CCC(NC(=O)C(C)(C)COc2ccccc2)CC1 [Example 74, 2,2-dimethyl-N-(1-methylpiperidin-4-yl)-3-phenoxypropanamide]	6.4
Cc1c(C#N)cccc1OCC(C)(C)C(=O)NC1CCN(C)CC1 [Example 75, 3-(3-cyano-2-methylphenoxy)-2,2-dimethyl-N-(1-methylpiperidin-4-yl)propanamide]	5.5
Cc1cccc(C#N)c1OCC(C)(C)C(=O)NC1CCN(C)CC1 [Example 77, 3-(2-cyano-6-methylphenoxy)-2,2-dimethyl-N-(1-methylpiperidin-4-yl)propanamide]	6.4

same assay, conditions: read-out: SSTR4 Activity pEC50 (converted)

SMILES	EC50 [nM]
C[C@@H]1CN(C)CC[C@H]1NC(=O)C(F)(F)COc1ncccc1C1CC1 (relative stereo) [Example 192, trans-3-((3-cyclopropylpyridin-2-yl)oxy)-N-(1,3-dimethylpiperidin-4-yl)-2,2-difluoropropanamide]	12.6
CC[C@@H]1CN(C)CC[C@H]1NC(=O)C(C)(C)COc1ncccc1C(F)(F)F (single isomer, unassigned) [Example 110, trans-N-(3-ethyl-1-methylpiperidin-4-yl)-2,2-dimethyl-3-((3-(trifluoromethyl)pyridin-2-yl)oxy)propanamide]	1
CN1CCC(NC(=O)C(C)(C)COc2cccnc2C(F)(F)F)CC1 [Example 52, 2,2-dimethyl-N-(1-methylpiperidin-4-yl)-3-((2-(trifluoromethyl)pyridin-3-yl)oxy)propanamide]	79.4
